Measured values from ChEMBL document CHEMBL3826929, “Discovery and Preclinical Evaluation of BMS-711939, an Oxybenzylglycine Based PPARα Selective Agonist” (ACS Med Chem Lett, 2016).

Columns and labels:
Syrian golden hamster [1] = experiment: Decrease in liver triglyceride level in high fat-diet fed syrian golden hamster model of dyslipidemia at 10 mg/kg administered qd through oral gavage measured after 21 days by FPLC analysis relative to control; type: functional, Mesocricetus auratus; parameters: scale not given: the % may be the effect or the level left
Homo sapiens [2] = species: Homo sapiens; experiment: Inhibition of sodium channel (unknown origin) assessed as channel block at 10 uM and 1 Hz by electrophysiology method
Mus musculus [3] = experiment: Decrease in triglyceride level in transgenic mouse expressing human ApoA1 at 50 mg/kg administered qd through oral gavage measured after 10 days relative to vehicle control; type: functional; parameters: scale not given: the % may be the effect or the level left
[4] = AUC (0 to 8 hrs) in Sprague-Dawley rat at 4 mg/kg, iv; type: ADME, organism-based; parameters: time < 8 hr, dose 4 mg/kg, route intravenous; settings: in vivo
Cytochrome P450 3A4 = Cytochrome P450 3A4 (Homo sapiens, UniProt P08684); experiment: Inhibition of CYP3A4 in human TC5 cells; type: ADME, cell-based
Chain of Cytochrome P450 3A4 (P08684 whole entry): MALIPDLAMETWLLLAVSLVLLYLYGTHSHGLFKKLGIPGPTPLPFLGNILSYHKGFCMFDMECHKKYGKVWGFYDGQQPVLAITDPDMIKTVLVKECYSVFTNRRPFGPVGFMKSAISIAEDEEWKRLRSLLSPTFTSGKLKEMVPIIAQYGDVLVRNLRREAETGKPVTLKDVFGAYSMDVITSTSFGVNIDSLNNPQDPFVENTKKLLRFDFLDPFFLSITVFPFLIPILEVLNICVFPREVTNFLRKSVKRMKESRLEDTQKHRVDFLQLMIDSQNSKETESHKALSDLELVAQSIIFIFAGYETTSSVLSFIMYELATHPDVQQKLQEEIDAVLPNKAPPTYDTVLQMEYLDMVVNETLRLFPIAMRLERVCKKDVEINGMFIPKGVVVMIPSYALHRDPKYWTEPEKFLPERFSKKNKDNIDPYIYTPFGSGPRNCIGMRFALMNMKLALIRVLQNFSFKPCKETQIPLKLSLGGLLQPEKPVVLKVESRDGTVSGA

[5] = Agonist activity at hamster PPAR-alpha; parameters: species or system Cricetinae
[6] = Tmax in Sprague-Dawley rat at 8 mg/kg, po; type: ADME, organism-based; settings: in vivo
Syrian golden hamster [7] = experiment: Decrease in plasma LDL cholesterol level in high fat-diet fed syrian golden hamster model of dyslipidemia at 3 mg/kg administered qd through oral gavage measured after 21 days by FPLC analysis relative to control; type: functional, Mesocricetus auratus; parameters: scale not given: the % may be the effect or the level left
Syrian golden hamster [8] = experiment: Decrease in plasma triglyceride level in high fat-diet fed syrian golden hamster model of dyslipidemia at 10 mg/kg administered qd through oral gavage measured after 21 days by FPLC analysis relative to control; type: functional, Mesocricetus auratus; parameters: scale not given: the % may be the effect or the level left
Salmonella typhimurium = experiment: Genotoxicity in Salmonella typhimurium TA98 up to 5000 ug by Ames test; type: toxicity, organism-based; settings: salmonella enterica subsp. enterica serovar typhimurium
Mus musculus [9] = experiment: Increase in serum ApoA1 level in transgenic mouse expressing human ApoA1 compound administered qd through oral gavage measured after 10 days; type: functional, organism-based
[10] = target: T1, Peroxisome proliferator-activated receptor gamma (Homo sapiens, UniProt P37231); experiment: Agonist activity at full length human PPAR-gamma transfected in human HepG2 cells by luciferase reporter gene assay; type: cell-based
T1 sequence (P37231 whole entry): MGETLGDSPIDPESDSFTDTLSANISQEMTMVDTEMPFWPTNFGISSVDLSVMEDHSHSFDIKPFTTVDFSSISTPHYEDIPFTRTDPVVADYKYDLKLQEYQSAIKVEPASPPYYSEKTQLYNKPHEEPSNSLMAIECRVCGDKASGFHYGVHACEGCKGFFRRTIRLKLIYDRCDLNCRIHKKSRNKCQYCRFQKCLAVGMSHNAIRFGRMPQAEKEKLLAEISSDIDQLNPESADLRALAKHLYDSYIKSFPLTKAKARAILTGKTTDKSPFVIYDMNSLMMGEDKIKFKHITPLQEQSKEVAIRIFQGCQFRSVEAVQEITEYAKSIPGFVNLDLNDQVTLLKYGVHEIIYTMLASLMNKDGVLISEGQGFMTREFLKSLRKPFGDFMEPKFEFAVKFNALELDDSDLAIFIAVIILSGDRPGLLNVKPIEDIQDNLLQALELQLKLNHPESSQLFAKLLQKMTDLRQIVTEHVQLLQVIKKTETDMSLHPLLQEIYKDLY

[11] = target: Peroxisome proliferator-activated receptor delta (Homo sapiens) (UniProt Q03181); experiment: Agonist activity against human PPAR-delta by transactivation assay relative to standard compound
Chain of Peroxisome proliferator-activated receptor delta (Homo sapiens) (Q03181 whole entry): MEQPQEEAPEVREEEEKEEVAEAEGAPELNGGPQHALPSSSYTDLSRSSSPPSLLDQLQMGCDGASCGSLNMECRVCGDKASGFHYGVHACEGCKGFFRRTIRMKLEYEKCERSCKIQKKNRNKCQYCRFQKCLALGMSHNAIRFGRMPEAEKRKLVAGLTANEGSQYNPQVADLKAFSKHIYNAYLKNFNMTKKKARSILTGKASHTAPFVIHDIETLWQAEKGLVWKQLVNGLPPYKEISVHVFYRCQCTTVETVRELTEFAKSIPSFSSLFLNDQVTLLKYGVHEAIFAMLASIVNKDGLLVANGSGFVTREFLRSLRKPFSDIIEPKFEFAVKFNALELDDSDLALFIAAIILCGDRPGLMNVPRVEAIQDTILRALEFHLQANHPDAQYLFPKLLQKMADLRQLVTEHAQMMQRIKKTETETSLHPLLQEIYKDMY

[12] = Cmax in dog at 2 mg/kg, po; type: ADME, organism-based, Canis lupus familiaris; parameters: dose 2 mg/kg, route oral; settings: in vivo
[13] = Oral bioavailability in Balb/c mouse at 10 mg/kg; type: ADME, organism-based; settings: in vivo
[14] = Volume of distribution at steady state in Sprague-Dawley rat at 4 mg/kg, iv; type: ADME, organism-based; settings: in vivo, read-out: Vdss
[15] = Oral bioavailability in Sprague-Dawley rat at 8 mg/kg; type: ADME, organism-based; settings: in vivo
Rhesus monkey [16] = experiment: Cardiovascular toxicity in monkey assessed as change in hemodynamic effect up to 20 mg/kg administered as single dose by telemetry test; type: organism-based, Macaca mulatta; settings: in vivo
[17] = Protein binding in human plasma; type: ADME, cell-free; settings: read-out: PPB (converted)
[18] = Plasma clearance in cynomolgus monkey at 1 mg/kg, iv; type: ADME, organism-based, Macaca fascicularis
Mus musculus [19] = experiment: Decrease in triglyceride level in transgenic mouse expressing human ApoA1 at 10 mg/kg administered qd through oral gavage measured after 10 days relative to vehicle control; type: functional; parameters: scale not given: the % may be the effect or the level left
[20] = target: Liver X receptor (Homo sapiens) (UniProt Q13133+P55055); experiment: Agonist activity at human LXR by transactivation assay relative to standard compound; type: protein assay
[21] = target: Retinoid X receptor (Homo sapiens) (UniProt P28702+P48443+P19793); experiment: Agonist activity at human RXR by transactivation assay relative to standard compound; type: protein assay
[22] = Cmax in cynomolgus monkey at 2 mg/kg, po; type: ADME, organism-based, Macaca fascicularis; parameters: dose 2 mg/kg, route oral; settings: in vivo
Retinoid X receptor = Retinoid X receptor (Homo sapiens, UniProt P28702+P48443+P19793); experiment: Agonist activity at human RXR by transactivation assay; type: protein assay
Cytochrome P450 2C8 = Cytochrome P450 2C8 (Homo sapiens, UniProt P10632); experiment: Inhibition of CYP2C8 (unknown origin); type: ADME
Chain of Cytochrome P450 2C8 (P10632 whole entry): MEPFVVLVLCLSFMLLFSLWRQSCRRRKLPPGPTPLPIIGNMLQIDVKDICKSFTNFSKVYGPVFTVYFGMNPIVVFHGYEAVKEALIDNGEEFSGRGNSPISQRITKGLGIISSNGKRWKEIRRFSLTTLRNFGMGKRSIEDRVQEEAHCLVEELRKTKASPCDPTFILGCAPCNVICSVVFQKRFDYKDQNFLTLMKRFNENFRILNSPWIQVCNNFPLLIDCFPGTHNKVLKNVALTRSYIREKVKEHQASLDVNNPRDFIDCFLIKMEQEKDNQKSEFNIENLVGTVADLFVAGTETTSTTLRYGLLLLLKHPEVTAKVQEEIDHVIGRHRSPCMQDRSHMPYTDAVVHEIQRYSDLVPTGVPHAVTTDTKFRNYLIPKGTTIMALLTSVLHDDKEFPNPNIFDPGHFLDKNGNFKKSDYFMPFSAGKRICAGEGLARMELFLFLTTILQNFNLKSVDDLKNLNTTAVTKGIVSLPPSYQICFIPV

Syrian golden hamster [23] = experiment: Decrease in plasma LDL cholesterol level in high fat-diet fed syrian golden hamster model of dyslipidemia at 1 mg/kg administered qd through oral gavage measured after 21 days by FPLC analysis relative to control; type: functional, Mesocricetus auratus; parameters: scale not given: the % may be the effect or the level left
Homo sapiens [24] = species: Homo sapiens; experiment: Inhibition of sodium channel (unknown origin) assessed as channel block at 10 uM and 4 Hz by electrophysiological method
[25] = Cardiovascular toxicity in purkinje fiber (unknown origin) assessed as change in action potential duration at 90% repolarization at 30 uM
Cytochrome P450 2C9 = Cytochrome P450 2C9 (Homo sapiens, UniProt P11712); experiment: Inhibition of CYP2C9 (unknown origin); type: ADME
Chain of Cytochrome P450 2C9 (P11712 whole entry): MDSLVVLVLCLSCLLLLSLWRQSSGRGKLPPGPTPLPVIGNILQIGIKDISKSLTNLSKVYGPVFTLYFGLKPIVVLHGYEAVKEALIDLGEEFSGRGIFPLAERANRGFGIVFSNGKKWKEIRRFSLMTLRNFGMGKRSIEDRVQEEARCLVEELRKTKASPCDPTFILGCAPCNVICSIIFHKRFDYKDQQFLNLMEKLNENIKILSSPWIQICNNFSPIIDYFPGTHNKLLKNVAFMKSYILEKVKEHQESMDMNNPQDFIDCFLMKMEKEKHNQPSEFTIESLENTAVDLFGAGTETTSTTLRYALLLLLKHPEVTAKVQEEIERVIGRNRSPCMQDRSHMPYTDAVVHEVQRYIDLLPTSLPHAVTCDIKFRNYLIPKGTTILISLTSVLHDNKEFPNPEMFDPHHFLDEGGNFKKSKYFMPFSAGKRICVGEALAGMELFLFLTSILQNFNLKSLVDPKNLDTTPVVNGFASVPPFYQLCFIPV

[26] = AUC (0 to 8 hrs) in Sprague-Dawley rat at 8 mg/kg, po; type: ADME, organism-based; parameters: time < 8 hr, dose 8 mg/kg, route oral; settings: in vivo
Mus musculus [27] = experiment: Increase in HDL cholesterol level in transgenic mouse expressing human ApoA1 compound administered qd through oral gavage measured after 10 days; type: functional, organism-based
[28] = Tmax in Balb/c mouse at 10 mg/kg, po; type: ADME, organism-based; settings: in vivo
[29] = Protein binding in rat plasma; type: ADME, cell-free; settings: read-out: PPB (converted)
Cytochrome P450 2C19 = Cytochrome P450 2C19 (Homo sapiens, UniProt P33261); experiment: Inhibition of CYP2C19 in human TC5 cells; type: ADME, cell-based
Chain of Cytochrome P450 2C19 (P33261 whole entry): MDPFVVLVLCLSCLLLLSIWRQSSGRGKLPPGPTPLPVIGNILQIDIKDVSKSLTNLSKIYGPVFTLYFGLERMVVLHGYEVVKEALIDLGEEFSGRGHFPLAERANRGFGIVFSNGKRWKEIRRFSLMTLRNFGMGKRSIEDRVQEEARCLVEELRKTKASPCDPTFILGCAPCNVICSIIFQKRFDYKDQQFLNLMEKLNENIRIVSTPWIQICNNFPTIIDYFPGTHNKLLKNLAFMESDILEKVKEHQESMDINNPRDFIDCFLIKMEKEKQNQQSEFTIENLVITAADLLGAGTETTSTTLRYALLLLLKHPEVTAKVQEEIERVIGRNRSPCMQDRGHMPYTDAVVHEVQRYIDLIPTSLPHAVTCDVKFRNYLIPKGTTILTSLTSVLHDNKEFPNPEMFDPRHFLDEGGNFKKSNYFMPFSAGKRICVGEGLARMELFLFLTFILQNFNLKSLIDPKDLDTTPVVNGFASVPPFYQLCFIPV

Mus musculus [30] = experiment: Decrease in triglyceride level in transgenic mouse expressing human ApoA1 at 3 mg/kg administered qd through oral gavage measured after 10 days relative to vehicle control; type: functional; parameters: scale not given: the % may be the effect or the level left
[31] = AUC (0 to 8 hrs) in Balb/c mouse at 5 mg/kg, iv; type: ADME, organism-based; parameters: dose 5 mg/kg, time < 8 hr, route intravenous; settings: in vivo
Syrian golden hamster [32] = experiment: Decrease in plasma triglyceride level in high fat-diet fed syrian golden hamster model of dyslipidemia at 3 mg/kg administered qd through oral gavage measured after 21 days by FPLC analysis relative to control; type: functional, Mesocricetus auratus; parameters: scale not given: the % may be the effect or the level left
[33] = target: Voltage-gated inwardly rectifying potassium channel KCNH2 (Homo sapiens, UniProt Q12809); experiment: Inhibition of human ERG by flux-based assay
Chain of Voltage-gated inwardly rectifying potassium channel KCNH2 (Q12809 whole entry): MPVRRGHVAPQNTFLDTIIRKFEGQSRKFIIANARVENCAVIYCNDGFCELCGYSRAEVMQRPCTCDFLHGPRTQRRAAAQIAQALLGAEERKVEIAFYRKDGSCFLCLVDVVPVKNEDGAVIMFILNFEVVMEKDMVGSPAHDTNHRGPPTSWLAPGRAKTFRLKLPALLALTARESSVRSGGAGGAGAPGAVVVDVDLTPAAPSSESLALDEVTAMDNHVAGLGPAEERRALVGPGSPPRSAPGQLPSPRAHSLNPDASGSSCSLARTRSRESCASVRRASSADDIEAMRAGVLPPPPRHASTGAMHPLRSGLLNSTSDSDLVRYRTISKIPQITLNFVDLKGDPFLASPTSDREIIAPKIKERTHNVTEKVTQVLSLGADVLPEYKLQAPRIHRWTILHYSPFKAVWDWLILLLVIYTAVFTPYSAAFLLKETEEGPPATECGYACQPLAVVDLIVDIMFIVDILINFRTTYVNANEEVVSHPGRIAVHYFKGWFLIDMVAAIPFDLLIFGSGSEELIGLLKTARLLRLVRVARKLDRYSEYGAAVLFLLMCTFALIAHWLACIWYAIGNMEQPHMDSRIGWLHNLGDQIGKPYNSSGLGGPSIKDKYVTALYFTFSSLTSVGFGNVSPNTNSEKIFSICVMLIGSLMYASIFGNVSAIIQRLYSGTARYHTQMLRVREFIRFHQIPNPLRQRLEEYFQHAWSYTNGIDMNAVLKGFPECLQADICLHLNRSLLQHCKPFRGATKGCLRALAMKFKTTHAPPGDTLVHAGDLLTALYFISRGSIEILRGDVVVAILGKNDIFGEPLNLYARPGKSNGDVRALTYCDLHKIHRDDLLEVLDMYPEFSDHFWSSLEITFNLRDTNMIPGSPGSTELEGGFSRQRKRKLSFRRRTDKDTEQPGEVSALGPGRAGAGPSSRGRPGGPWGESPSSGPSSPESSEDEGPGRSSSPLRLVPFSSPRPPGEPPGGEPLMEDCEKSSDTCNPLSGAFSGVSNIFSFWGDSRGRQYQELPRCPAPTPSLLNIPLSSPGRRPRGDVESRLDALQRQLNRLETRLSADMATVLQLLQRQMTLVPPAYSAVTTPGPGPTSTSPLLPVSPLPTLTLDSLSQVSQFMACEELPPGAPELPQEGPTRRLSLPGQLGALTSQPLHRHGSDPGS

Rhesus monkey [34] = experiment: Cardiovascular toxicity in monkey assessed as change in electrocardiographic effect up to 20 mg/kg administered as single dose by telemetry test; type: organism-based, Macaca mulatta; settings: in vivo
Cytochrome P450 1A2 = Cytochrome P450 1A2 (Homo sapiens, UniProt P05177); experiment: Inhibition of CYP1A2 (unknown origin); type: ADME
Chain of Cytochrome P450 1A2 (P05177 whole entry): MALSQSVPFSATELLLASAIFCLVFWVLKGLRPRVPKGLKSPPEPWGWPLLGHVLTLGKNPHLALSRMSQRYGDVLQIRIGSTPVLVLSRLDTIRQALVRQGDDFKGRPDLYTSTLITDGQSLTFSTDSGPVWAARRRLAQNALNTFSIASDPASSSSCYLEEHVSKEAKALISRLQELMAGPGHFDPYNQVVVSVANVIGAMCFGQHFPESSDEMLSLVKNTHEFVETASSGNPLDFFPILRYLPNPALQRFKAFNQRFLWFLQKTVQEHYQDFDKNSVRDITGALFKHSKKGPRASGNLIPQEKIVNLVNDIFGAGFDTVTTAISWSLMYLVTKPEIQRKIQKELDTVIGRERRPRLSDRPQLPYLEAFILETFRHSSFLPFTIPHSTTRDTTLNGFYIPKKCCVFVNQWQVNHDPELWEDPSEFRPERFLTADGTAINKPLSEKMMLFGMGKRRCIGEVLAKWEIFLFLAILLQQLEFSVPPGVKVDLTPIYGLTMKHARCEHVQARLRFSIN

inhibition (Homo sapiens [2]): 12%
AUC(0-t) at 8 h [4]: 9.4 µM·h
EC50 [5]: 0.178 µM
Tmax [6]: 18 min
EC50 [10]: > 1.61 µM
Efficacy [11]: < 15%
Cmax [12]: 1500 nM
bioavailability [13]: 66%
Vd [14]: 2.2 L/kg
bioavailability [15]: 100%
fraction unbound [17]: 0.003
clearance [18]: 5.9 mL/min/kg
Efficacy [20]: < 15%
Efficacy [21]: < 15%
Cmax [22]: 1400 nM
EC50 (Retinoid X receptor): > 25 µM
IC50 (Cytochrome P450 2C8): > 40 µM
inhibition (Homo sapiens [24]): 14%
IC50 (Cytochrome P450 2C9): > 40 µM
AUC(0-t) at 8 h [26]: 32 µM·h
Tmax [28]: 15 min
fraction unbound [29]: 0.004
AUC(0-t) at 8 h [31]: 13 µM·h
IC50 (Cytochrome P450 1A2): > 40 µM
Structure (SMILES): COC(=O)N(CC(=O)O)Cc1cc(OCc2nc(-c3ccc(Cl)cc3)oc2C)ccc1F
Activity (Syrian golden hamster [1]): 48%
Activity (Mus musculus [3]): 58.1%
IC50 (Cytochrome P450 3A4): > 150 µM
Activity (Syrian golden hamster [7]): 61%
Activity (Syrian golden hamster [8]): 85%
Activity (Salmonella typhimurium): Non-toxic
Activity (Mus musculus [9]): Dose-dependent effect
Activity (Rhesus monkey [16]): Non-toxic
Activity (Mus musculus [19]): 23.5%
Activity (Syrian golden hamster [23]): 24%
Activity [25]: -5.4%
Activity (Mus musculus [27]): Dose-dependent effect
IC50 (Cytochrome P450 2C19): > 150 µM
Activity (Mus musculus [30]): 14.2%
Activity (Syrian golden hamster [32]): 74%
IC50 [33]: > 80 µM
Activity (Rhesus monkey [34]): Non-toxic
